Laboratory results: publication PMC9506480, “Synthesis and Evaluation of Antiproliferative Activity, Topoisomerase IIα Inhibition, DNA Binding and Non-Clinical Toxicity of New Acridine–Thiosemicarbazone Derivatives” (Pharmaceuticals, 2022)
pIC50: −log10 of the molar value. “Also recorded” adds a separate entry of the source. Read-outs that look alike come from different tables or passages of the source.

Experiments:
[1] = target: T1, recombinant human topoisomerase IIα (p170) (Homo sapiens, UniProt P11388); experiment: Human topoisomerase IIα inhibition assay (pUC19 plasmid relaxation); type: biochemical; conditions: for inhibition of Topo IIα enzymatic activity (in words) / % of enzyme inhibition: 100 µM; for % of enzyme inhibition / inhibition at 100 µM: densitometry, relative to positive control mAMSA, '-' = no inhibition; for inhibition at 100 µM: read-out: % of enzyme inhibition
T1 construct: purchased Sigma-Aldrich
T1 sequence (P11388 whole entry): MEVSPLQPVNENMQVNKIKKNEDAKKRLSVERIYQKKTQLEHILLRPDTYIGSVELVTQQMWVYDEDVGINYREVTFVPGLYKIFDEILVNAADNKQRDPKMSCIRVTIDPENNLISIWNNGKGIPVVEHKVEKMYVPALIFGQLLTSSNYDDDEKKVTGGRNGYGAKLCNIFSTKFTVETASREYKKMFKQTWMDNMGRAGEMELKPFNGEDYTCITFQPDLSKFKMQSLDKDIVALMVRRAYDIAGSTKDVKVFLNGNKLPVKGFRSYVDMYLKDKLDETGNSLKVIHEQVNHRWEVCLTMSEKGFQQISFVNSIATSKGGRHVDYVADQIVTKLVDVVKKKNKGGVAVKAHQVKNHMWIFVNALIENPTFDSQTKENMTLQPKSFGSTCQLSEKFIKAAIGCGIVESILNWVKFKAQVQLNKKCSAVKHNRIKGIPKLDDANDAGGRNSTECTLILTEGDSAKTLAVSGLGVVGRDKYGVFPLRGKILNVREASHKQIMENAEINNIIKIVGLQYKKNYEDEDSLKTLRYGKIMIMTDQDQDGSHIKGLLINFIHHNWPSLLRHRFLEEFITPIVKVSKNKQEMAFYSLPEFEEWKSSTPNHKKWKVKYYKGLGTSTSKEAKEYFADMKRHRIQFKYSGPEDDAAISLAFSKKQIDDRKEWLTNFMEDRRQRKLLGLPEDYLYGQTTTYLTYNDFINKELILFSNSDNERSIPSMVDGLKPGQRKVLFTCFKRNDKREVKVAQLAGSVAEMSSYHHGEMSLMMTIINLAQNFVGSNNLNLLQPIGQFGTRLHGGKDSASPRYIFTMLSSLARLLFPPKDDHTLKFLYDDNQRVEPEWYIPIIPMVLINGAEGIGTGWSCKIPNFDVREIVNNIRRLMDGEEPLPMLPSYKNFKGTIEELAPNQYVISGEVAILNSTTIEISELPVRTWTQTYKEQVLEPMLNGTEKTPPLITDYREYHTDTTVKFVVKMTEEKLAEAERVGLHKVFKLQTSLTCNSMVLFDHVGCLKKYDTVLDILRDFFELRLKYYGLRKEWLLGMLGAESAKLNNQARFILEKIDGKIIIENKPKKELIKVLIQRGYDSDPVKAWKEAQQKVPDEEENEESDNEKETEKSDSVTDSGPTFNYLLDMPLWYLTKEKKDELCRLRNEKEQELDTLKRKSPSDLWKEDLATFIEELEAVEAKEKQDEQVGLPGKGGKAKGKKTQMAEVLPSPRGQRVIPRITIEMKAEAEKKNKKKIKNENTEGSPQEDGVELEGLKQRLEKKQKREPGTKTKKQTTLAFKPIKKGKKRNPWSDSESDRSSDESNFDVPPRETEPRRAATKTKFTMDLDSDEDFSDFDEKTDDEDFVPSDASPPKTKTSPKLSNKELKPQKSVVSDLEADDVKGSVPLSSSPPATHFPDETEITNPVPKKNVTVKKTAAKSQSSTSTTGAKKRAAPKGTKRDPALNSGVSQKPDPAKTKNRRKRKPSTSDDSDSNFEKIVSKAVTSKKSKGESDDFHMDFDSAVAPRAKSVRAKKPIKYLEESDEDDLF
From the text: Several studies have shown the ability of acridines to inhibit topoisomerases, being considered the main mechanism responsible for the antiproliferative activities of this scaffold. The possibility of the new acridine derivatives to inhibit Topo IIα in its biological function of DNA double-strand relaxation was investigated in this work. This enzymatic inhibition can be accompanied by the presence of a supercoiled or relaxed DNA band, performed with the pUC19 plasmid, as shown in Figure 2. In this study, mAMSA was used as a positive inhibition control.
For testing the ability of Topo IIα inhibition, the compounds were evaluated in the DNA plasmid relaxation assay. This test consists of evaluating the Topo IIα enzyme activity in the absence and presence of the compound, followed by electrophoresis analysis, as previously described by Almeida et al. (2016). Briefly, 100 ng pUC19 DNA plasmid (Sigma-Aldrich) and 4.0 units of recombinant human (p170) topoisomerase II (Sigma-Aldrich) in relaxation buffer without or with tested compounds were incubated for 30 min at 37 °C. The tested concentrations were […], and amsacrine (mAMSA) was used as a positive control. Reactions were terminated with 1% SDS and digested with proteinase K. Then, the reaction products were analyzed by electrophoresis gel stained with ethidium bromide and photographed under UV light. Quantitative evaluation (% of enzyme inhibition by compounds about the positive control mAMSA) of the gel bands corresponding to supercoiled DNA was performed by densitometry using image-processing software (Scion Image, version Beta 4.0.2.) according to Gouveia et al. (2018).
Figure 2 Effects of mAMSA and its acridine derivatives on topoisomerase IIα activity. Effects of derivatives and positive control on the inhibition of human topoisomerase IIα. Native supercoiled pUC19 was incubated for 30 min at 37 °C with […] of human Topo IIα in the absence (lane 2) or presence of ligands at a concentration 100 μM. Inhibition of Topo IIα-induced DNA relaxation by mAMSA (lane 3) was used as a positive control. DNA samples were run on an agarose gel followed by ethidium bromide staining.

K562-Lucena 1 = experiment: MTT cytotoxicity assay on resistant leukemic cells, K562-Lucena 1; type: cell-based, human; conditions: for pIC50: Homo sapiens, K562-Lucena 1, MTT, 72 h, multidrug-resistant
Experimental: (§1) K562 (human erythroleukemic) and its multidrug-resistant counterpart, K562-Lucena 1, were obtained from the Tumor Immunology Laboratory (Federal University of Rio de Janeiro) (Rumjanek et al., 2001) and were cultured as recommended by Daflon-Yunes et al., 2013 [93, 106, 107].
(§2) CL-07, DL-01 and DL-08 compounds were evaluated for cell viability on K562 and K562-Lucena 1 cells using the colorimetric tetrazolium method (Mosmann, 1983). Cells were plated in 96-well plates. Compounds were dissolved in 1% (v/v) DMSO and RPMI-1640 medium (Sigma-Aldrich) in five serial concentrations from 1 to 50 µg/mL and were later added to each well and incubated for 72 h at 37 °C in a 5% CO2 humidified environment. As a positive control, 1 µM staurosporine was used. Then, the cells were treated with 20 µL of 5 mg/mL 3-(4,5-dimethylthiazol-2yl)-2,5-diphenyltetrazolium bromide solution (MTT solution in phosphate buffer solution) for 3 h. At the end of treatment, absorbances at 562 nm were measured using an iMark™ Microplate Absorbance Reader (iMark™, Hercules, CA, USA). Half-inhibitory concentration (IC50) was obtained by nonlinear regression with 95% confidence intervals (CI 95%) using GraphPad Prism software (Intuitive Software for Science; San Diego, CA, USA).

K-562 cells = experiment: MTT cytotoxicity assay on leukemic cells, K562; type: cell-based; conditions: Homo sapiens
Experimental: as §1, §2

Swiss mice = experiment: Acute toxicity study (14 days), OECD guideline 423; type: in vivo; conditions: for Organ mass Heart (g) / Organ mass Kidneys (g) / Organ mass Lungs (g) / Organ mass Speleen (g) / Organ mass Liver (g): after acute toxicity study; for Organ mass Heart (g) / Organ mass Kidneys (g) / Organ mass Lungs (g) / Organ mass Speleen (g) / Food (g/day) / Water (mL/day) / Weight gain (g) / Organ mass Liver (g): 2000 mg/kg oral; for Food (g/day) / Water (mL/day) / Weight gain (g): during acute toxicity study; for DA/TA (dead animals/total animals) / Mortality (%) / Signs of Toxicity: single oral dose 2000 mg/kg, female mice, 14 days
Experimental: Based on the low selectivity found in the in vitro cytotoxicity, we decided to perform a preclinical in vivo toxicological analysis on mice to understand the pharmacological profiles of the derivatives described herein. After oral administration of acridine–thiosemicarbazone derivatives to female mice, possible adverse clinical signs and mortality in the groups of animals submitted to the acute toxicity study were recorded (Table 6), as well as absolute body mass, food and water consumption, and the average masses of the organs of the animals treated with the compounds and the control group.
An acute toxicity study was conducted according to Organization for Economic Co-operation and Development (OECD) guideline 423 (OECD 2001) with modifications (National Health Surveillance Agency Brazil, 2013). In principle, the method is not intended to allow an accurate calculation of the lethal dose (LD50), despite providing an estimate of its value; however, it allows a classification of the substance into categories according to the Globally Harmonized Classification System (GHS). The tests were carried out with the consent of the ethics council of the State University of Paraiba (process no. 008/2021, approved 9 November 2021). Swiss mice, three females per group, were subjected to single oral doses of 2000 mg/kg of acridine–thiosemicarbazone derivatives, and to the control group, we administered only the vehicle (12% Tween 80 solution in saline).
After the end of treatment with acridine–thiosemicarbazone derivatives, the animals were anesthetized with a xylazine–ketamine solution of 0.2 mL/100 g (8.75 mL ketamine (100 mg/mL) and 1.25 mL xylazine (10 mg/mL)) as per Cornell University/Cornell Center for Animal Resources and Education protocol described by Flecknell (1996). After euthanasia, a macroscopic assessment of the external body surface, cavities (thoracic, abdominal and cranial) and organs (change in position, shape, size, color and consistency) was carried out. The absolute and relative weights of the brain, lungs, liver, heart, spleen and kidneys were also determined. Relative weight was calculated using the formula: relative organ weight (%) = (weight of organ/weight of mouse) × 100 [88, 89].

[2] = MTT, 72 h, read-out: IC50 K-562
[3] = range over both cell lines and both compounds, read-out: IC50 on leukemic cells (K-562 and K-562 Lucena 1)

| SMILES | inhibition of Topo IIα enzymatic activity (in words) [1] | pIC50 (K562-Lucena 1) | pIC50 (K-562 cells; [2]) | Organ mass Heart (g) (Swiss mice) | Organ mass Kidneys (g) (Swiss mice) | Organ mass Lungs (g) (Swiss mice) | Organ mass Speleen (g) (Swiss mice) | Food (g/day) (Swiss mice) | Water (mL/day) (Swiss mice) | Weight gain (g) (Swiss mice) | DA/TA (dead animals/total animals) (Swiss mice) | Mortality (%) (Swiss mice) | Signs of Toxicity (Swiss mice) | % of enzyme inhibition [1] | inhibition at 100 µM [1] | selectivity K562-Lucena 1 versus MRC-5 (K562-Lucena 1; more selective than MRC-5) | pIC50 (K-562 cells; [3]) | Organ mass Liver (g) (Swiss mice) |
| --- | --- | --- | --- | --- | --- | --- | --- | --- | --- | --- | --- | --- | --- | --- | --- | --- | --- | --- |
| Oc1ccc(/C=N/NC(=S)Nc2c3ccccc3nc3ccccc23)cc1 [CL-07, (E)-N-(acridin-9-yl)-2-(4-hydroxybenzylidene)hydrazine-1-carbothioamide] | did not show inhibition capacity; also recorded: could not inhibit Topo IIα | 4.36 | 4.34 | 0,417±0,038 g | 1,308±0,099 g | 0,619±0,089 g | 0,574±0,061 g | 14,57±1,78 g/day | 23,57±1,34 mL/day | 1,33±0,27 g | 0/3 | 0% | None |  |  |  |  |  |
| COc1ccc2nc3cc(Cl)ccc3c(NC(=S)N/N=C/c3ccccc3)c2c1 [DL-01, (E)-2-benzylidene-N-(6-chloro-2-methoxyacridin-9-yl)hydrazine-1-carbothioamide] | able to inhibit the enzymatic activity | 4.78 | 4.94 | 0,410±0,039 g | 1,338±0,091 g | 0,640±0,057 g | 0,551±0,037 g | 12,35±1,39 g/day | 23,71±1,26 mL/day | 0,69±0,58 g | 0/3 | 0% | Reduced feed consumption | 77% | > 74% | 2 times | 4.76 to 4.94 | 5,257±0,610 g |
| COc1ccc2nc3cc(Cl)ccc3c(NC(=S)N/N=C/c3cccc(O)c3)c2c1 [DL-08, (E)-N-(6-chloro-2-methoxyacridin-9-yl)-2-(3-hydroxybenzylidene)hydrazine-1-carbothioamide] | able to inhibit the enzymatic activity | 4.77 | 4.76 | 0,427±0,035 g | 1,355±0,062 g | 0,646±0,032 g | 0,412±0,033 g | 15,21±0,97 g/day | 25,28±0,46 mL/day | 0,76±0,43 g | 0/3 | 0% | Hepatic steatosis | 79% | > 74% |  | 4.76 to 4.94 | 5,619±0,259 g |
